Source: patent publication US11083743B2, “DNA hypomethylating agents for cancer therapy” (priority 2013, dated 2021)

What was measured:
[1] = system: TS/A cells; assay: Anti-tumor activity on TS/A tumor grafts in T cell-deficient athymic nude mice; format: in vivo; conditions: FIG. 6A, first cycle only
Method: (§1) Six-week-old female BALB/c, athymic nude and SCID/Beige mice were obtained from Harlan laboratories (Udine, Italy). Animal care and use were in accordance with Institutional guidelines and the indications of Workman et al. (Workman P, et al. Br J Cancer. 2010 May 25; 102(11): 1555-1577).
(§2) Mice were sc injected in the flank region with TS/A cells (2×10^5) resuspended in 0.1 ml of physiologic saline. Animals were examined daily and after a latency period of 1 week, mice bearing clearly palpable and visible tumor grafts (diameter≥0.2 cm) were ip injected with 0.2 ml/injection of i) 15 mg/kg/day of 5-AZA-CdR, three times a day every three hours on days 0 and 7 and on days 42 and 49 for the 2nd cycle of treatment; ii) 100 μg/mouse of anti-CTLA-4 mAb, on days 2, 5 and 8 and on days 44, 47 and 50 for the 2nd cycle of treatment; iii) 100 μg/mouse of anti-PDL-1 mAb on days 2, 5 and 8; iv) combined administration of 5-AZA-CdR and anti-CTLA-4 mAb according to the above reported schedules or; v) combined administration of 5-AZA-CdR and anti-PDL-1 mAb according to the above reported schedules. […] Animals were weekly monitored for changes in the tumor size or sacrificed by CO2 overdose; for the latter, tumor tissues were surgically removed, and each specimen, divided under sterile conditions, were snap-frozen in liquid nitrogen and stored at −80° C. until used for RNA and DNA extraction.

[2] = system: P1A promoter; assay: qMSP analysis of P1A promoter methylation in excised tumor tissues; format: in vivo, murine; conditions: FIG. 3; tumors excised one week after end of first cycle (day 8)
Method: Mice were sc injected in the flank region with TS/A cells (2×10^5) resuspended in 0.1 ml of physiologic saline. […] Control mice were ip injected with 0.2 ml of saline solution. Animals were weekly monitored for changes in the tumor size or sacrificed by CO2 overdose; for the latter, tumor tissues were surgically removed, and each specimen, divided under sterile conditions, were snap-frozen in liquid nitrogen and stored at -80° C. until used for RNA and DNA extraction. RNA and DNA were extracted from tissues sections, removed from control and treated mice one week after the end of the first cycle treatment (day 8) and homogenized with the aid of Tissue Lyser II (QIAGEN) in Trizol reagent or lysis buffer, respectively. Total RNA was extracted following the manufacturer's instructions and stored at -80° C. Total genomic DNA was extracted by digestion with 100 μg/ml proteinase K in the presence of 0.5% SDS at 50° C. overnight, followed by phenol/chloroform extraction and ethanol precipitation. Genomic DNA was eluted in TE buffer and stored at -20° C. […] Primers for the analysis of the methylation status of […], designed using the free on-line software MethPrimer (Li L C and […] Bioinformatics 2002; 18:1427-31), were: […] (Methylated), forward [NT] ID No. 5), reverse [NT] ID No. 6); […] (Unmethylated), forward [NT] ID No. 7), reverse [NT] ID No. 8). […]

[3] = system: TS/A cells; assay: Anti-tumor activity on TS/A tumor grafts in SCID/Beige mice; format: in vivo; conditions: FIG. 6B, first cycle only
Method: as §1, §2

[4] = system: P1A; assay: Real-time quantitative RT-PCR of P1A expression in excised tumor tissues; format: in vivo, murine; conditions: FIG. 5; normalized to β-actin
Method: Mice were sc injected in the flank region with TS/A cells (2×10^5) resuspended in 0.1 ml of physiologic saline. […] Control mice were ip injected with 0.2 ml of saline solution. Animals were weekly monitored for changes in the tumor size or sacrificed by CO2 overdose; for the latter, tumor tissues were surgically removed, and each specimen, divided under sterile conditions, were snap-frozen in liquid nitrogen and stored at -80° C. until used for RNA and DNA extraction. RNA and DNA were extracted from tissues sections, removed from control and treated mice one week after the end of the first cycle treatment (day 8) and homogenized with the aid of Tissue Lyser II (QIAGEN) in Trizol reagent or lysis buffer, respectively. Total RNA was extracted following the manufacturer's instructions and stored at -80° C. […] Real-time quantitative RT-PCR analyses were performed as previously described (Calabro L, et al., J Cell Physiol 2005; 202:474-7) Briefly, total RNA was digested with RNAse-free DNAse (Roche Diagnostics), to remove contaminating genomic DNA. […] Measurement of gene expression was performed utilizing the ABI prism 7000 Sequence Detection System (Applied Biosystems), as previously described (Calabro L, et al., J Cell Physiol 2005; 202:474-7). cDNA standards were obtained by RT-PCR amplification of the specific mRNAs and quantitated by NanoDrop® ND-1000 UV-Vis Spectrophotometer. […]

[5] = system: tumour; assay: Histology and immunohistochemistry of surgically-excised tumors from treated mice; format: in vivo
[6] = system: TS/A cells; assay: Anti-tumor activity on TS/A tumor grafts in syngeneic BALB/c mice (caliper tumor volume); format: in vivo; conditions: FIG. 1
Method: Primary cultures of murine mammary carcinoma cells TS/A were grown in DMEM Medium supplemented with 10% heat-inactivated FCS (Lonza), 2 mM L-glutamine (Biochrom AG) and 50 μM β-mercaptoethanol. Six-week-old female BALB/c, athymic nude and SCID/Beige mice were obtained from Harlan laboratories (Udine, Italy). Animal care and use were in accordance with Institutional guidelines and the indications of Workman et al. (Workman P, et al. Br J Cancer. 2010 May 25; 102(11): 1555-1577). Mice were sc injected in the flank region with TS/A cells (2×10^5) resuspended in 0.1 ml of physiologic saline. […] Control mice were ip injected with 0.2 ml of saline solution. Animals were weekly monitored for changes in the tumor size or sacrificed by CO2 overdose; for the latter, tumor tissues were surgically removed, and each specimen, divided under sterile conditions, were snap-frozen in liquid nitrogen and stored at −80° C. until used for RNA and DNA extraction. In vivo tolerability was evaluated by measurements of body weight and mortality rate. The antiproliferative activity of the drug was evaluated by caliper measurements of tumor mass. Body weight and tumor size measurements were recorded periodically, all along the treatment. Tumor volumes (TV) were calculated as follows: TV=LD^2/2 (in which L is the longest diameter and D the shortest one).

[7] = system: murine CTA (P1A, Mage-a family); assay: RT-PCR analysis of murine CTA expression in excised tumor tissues; format: in vivo; conditions: FIG. 4, tumors excised one week after end of first cycle
Method: Mice were sc injected in the flank region with TS/A cells (2×10^5) resuspended in 0.1 ml of physiologic saline. […] Control mice were ip injected with 0.2 ml of saline solution. Animals were weekly monitored for changes in the tumor size or sacrificed by CO2 overdose; for the latter, tumor tissues were surgically removed, and each specimen, divided under sterile conditions, were snap-frozen in liquid nitrogen and stored at -80° C. until used for RNA and DNA extraction. RNA and DNA were extracted from tissues sections, removed from control and treated mice one week after the end of the first cycle treatment (day 8) and homogenized with the aid of Tissue Lyser II (QIAGEN) in Trizol reagent or lysis buffer, respectively. Total RNA was extracted following the manufacturer's instructions and stored at -80° C. Total genomic DNA was extracted by digestion with 100 μg/ml proteinase K in the presence of 0.5% SDS at 50° C. overnight, followed by phenol/chloroform extraction and ethanol precipitation. Genomic DNA was eluted in TE buffer and stored at -20° C. RT-PCR reactions were performed using oligonucleotide primer sequences and PCR amplification programs specific for […] and Mage-a family (Coral S, Covre A et al, Br J Cancer. 2012 Sep. 25; 107(7):1116-24). […]

[8] = system: MHC class I antigens; assay: MHC class I antigen expression on tumours of treated mice; format: in vivo

With `Nc1ncn([C@H]2C[C@H](O)[C@@H](CO)O2)c(=O)n1` [5-AZA-CdR, 5-aza-2′-deoxycytidine] the tumor growth [1] was “significantly (p<0.05 and p<0.01) reduced tumor growth”, the “constitutive methylation levels of P1A promoter in cancer tissues vs control mice” value [2] was “significant (p<0.05) reduction” and the tumor growth [3] was “significantly (p<0.05 and p<0.01) reduced tumor growth”. The “levels of P1A-specific mRNA expression, 5-AZA-CdR alone compared with combination” value [4] was “similar”, the “lymphocyte infiltration into the tumour” value [5] was “neither induces lymphocyte infiltration” and the tumour necrosis [5] was “does not induce tumour necrosis”. For the same molecule, the tumor growth inhibition ([6]; day 15, vs control mice) was 40.7%, the tumor growth inhibition ([6]; day 35, vs control mice) was 67.6% and the “expression of P1A and Mage-a members in tumor tissues” value [7] was “strong de novo expression”. For the same molecule, the “constitutive expression of MHC class I antigens on tumours” value [8] was “increases”.
